In patent publication US5952335A, “Fused polycyclic heterocycle derivatives” (Eisai Co., Ltd., priority 1995, dated 1999):
Structures can show the parent of a compound that is named as a salt.

Tested on: P388 cells
Assay: in vitro Antitumor Test on P388 Cells (Mouse Leukemic Cells), MTT, 3 days
Assay type: cell-based
Settings: 72 h, 3 days incubation
Experimental: P388 cells suspended in RPMI1640 medium (manufactured by Sanko Junyaku) containing 10% of fetal calf serum, (100 U/ml) of penicillin, 100 μg/ml of streptomycin, 5×10^-5 M of mercaptoethanol and 1 mM of sodium pyruvate were pipetted into a 96-well U-bottomed microplate at a ratio of 1.25×10^3 cells (0.1 ml) per well and incubated in a incubator containing 5% of carbon dioxide at 37° C. for a day. A compound of the present invention was dissolved in dimethyl sulfoxide to give a concentration of 10^-2 M and then diluted with the 10% fetal calf serum-containing RPMI1640 culture medium to give a concentration of 10^-4 or 10^-5 M. By taking this concentration as the maximal level, threefold serial dilution was effected with the use of the 10% fetal calf serum-containing RPMI1640 culture medium. Then these dilutions were added to the P388 incubation plate as described above at a ratio of 0.1 ml per well followed by incubation in an incubator containing 5% of carbon dioxide at 37° C. for 3 days. After the completion of the incubation, 0.05 ml/well of a 3.3 mg/ml solution of MTT [3-(4,5-dimethylthiazol-2-yl)-2,5-diphenyltetrazolium bromide] was added thereto and the incubation was continued for additional 2 hours. The microplate was centrifuged and the supernatant was aspirated off from each well. Then the formazan thus formed was dissolved in 0.1 ml of dimethyl sulfoxide and the absorbance thereof at 540 nm measured with a microplate reader was taken as an indication of the viable cell count. In accordance with the following formula, the inhibitory ratio was calculated and the 50% inhibitory concentration (IC50) of the test compound was determined: [formula] wherein T means the absorbance of a well containing the test compound; and C means the absorbance of a well containing no test compound.

SMILES	IC50 [µM]
CN(C)CCn1c(=O)c2cccc3c4c5c(ccc4n(c1=O)c23)C(=O)CCO5 [Example 15, 2,3-Dihydro-9-[2-(dimethylamino)ethyl]-4H,8H-pyrano[3,2-c]pyrimido[5,6,1-jk]carbazole-4,8,10(9H)-trione hydrochloride]	0.14
CN(C)CCCn1c(=O)c2cccc3c4c5ccccc5ccc4n(c1=O)c23 [Example 19, 5-[3-(Dimethylamino)propyl]-4H-benzo[c]pyrimido[5,6,1-jk]carbazole-4,6(5H)-dione hydrochloride]	0.22
COc1ccc2c(ccc3c2c2cccc4c(=O)n(CCN(C)C)c(=O)n3c42)c1 [Example 22, 5-[2-(Dimethylamino)ethyl]-11-methoxy-4H-benzo[c]pyrimido [5,6,1-jk]carbazole-4,6(5H)-dione hydrochloride]	0.29
CN(C)CCn1c(=O)c2c3ccccc3nc3c4ccccc4n(c1=O)c32 [Example 24, 2-[2-(Dimethylamino)ethyl]-1H-benzo[b]pyrimido[1,6,5-lm]-4-azacarbazole-1,3(2H)-dione dihydrochloride]	0.32
CN(C)CCn1c(=O)c2cc([N+](=O)[O-])cc3c2n(c1=O)-c1cc2ccccc2cc1O3 [Example 27, 2-[2-(Dimethylamino)ethyl]-5-nitro-1H-benzo[b]pyrimido [5,6,1-kl]phenoxazine-1,3(2H)-dione hydrochloride]	0.49
COc1cccc2ccc3c(c4cccc5c(=O)n(CCN(C)C)c(=O)n3c54)c12 [Example 32, 5-[2-(Dimethylamino)ethyl]-13-methoxy-4H-benzo[c]pyrimido [5,6,1-jk]carbazole-4,6(5H)-dione hydrochloride]	0.41
CN(C)CCCCn1c(=O)c2cccc3c4c5ccccc5ccc4n(c1=O)c23 [Example 34, 5-[4-(Dimethylamino)butyl]-4H-benzo[c]pyrimido[5,6,1-jk]carbazole-4,6(5H)-dione hydrochloride]	0.45
CN(C)CCn1c(=O)c2cc([N+](=O)[O-])cc3c4c5ccccc5ccc4n(c1=O)c23 [Example 37, 5-[2-(Dimethylamino)ethyl]-2-nitro-4H-benzo[c]pyrimido [5,6,1-jk]carbazole-4,6(5H)-dione hydrochloride]	0.38
Cc1cc2c(=O)n(CCN(C)C)c(=O)n3c4ccc5ccccc5c4c(c1)c23 [Example 38, 5-[2-(Dimethylamino)ethyl]-2-methyl-4H-benzo[c]pyrimido [5,6,1-jk]carbazole-4,6(5H)-dione hydrochloride]	0.11
CN(C)CCn1c(=O)c2cccc3c4c5c(ccc4n(c1=O)c23)OCO5 [Example 40, 8-[2-(Dimethylamino)ethyl]-7H-1,3-dioxolo[4,5-c]pyrimido [5,6,1-jk]carbazole-7,9(8H)-dione hydrochloride]	0.22
CN(C)CCn1c(=O)c2cccc3c4c5ccc(Br)cc5ccc4n(c1=O)c23 [Example 41, 11-Bromo-5-[2-(dimethylamino)ethyl]-4H-benzo[c]pyrimido [5,6,1-jk]carbazole-4,6(5H)-dione hydrochloride]	0.32

The remaining lines, values ahead:

IC50 [µM]	SMILES
0.0017	CN(C)CCn1c(=O)c2cccc3c4c5c(ccc4n(c1=O)c23)C(O)CCC5 (single isomer, unassigned; (+)) [Example 6, (+)-5-[2-(Dimethylamino)ethyl]-10-hydroxy-10,11,12,13-tetrahydro-4H-benzo[c]pyrimido[5,6,1-jk]carbazole-4,6(5H)-dione]
0.0048	CN(C)CCn1c(=O)c2cccc3c4c5c(ccc4n(c1=O)c23)C(O)CCC5 (centres unmarked) [Example 5, 5-[2-(Dimethylamino)ethyl]-10-hydroxy-10,11,12,13-tetrahydro-4H-benzo[c]pyrimido[5,6,1-jk]carbazole-4,6(5H)-dione]
0.0067	CN(C)CCn1c(=O)c2cccc3c4c5c(ccc4n(c1=O)c23)C(O)CO5 (centres unmarked) [Example 9, 2,3-Dihydro-8-[2-(dimethylamino)ethyl]-3-hydroxy-7H-furo[3,2-c]pyrimido[5,6,1-jk]carbazole-7,9(8H)-dione]
0.074	CN(C)CCn1c(=O)c2cccc3c4ccc5sccc5c4n(c1=O)c23 [Example 14, 2-[2-(Dimethylamino)ethyl]-1H-pyrimido[5,6,1-jk]thieno[3,2-a]carbazole-1,3(2H)-dione hydrochloride]
0.11	CN(C)CCn1c(=O)c2cccc3c4c5occc(=O)c5ccc4n(c1=O)c23 [Example 16, 9-[2-(Dimethylamino)ethyl]-4H,8H-pyrano[3,2-c]pyrimido [5,6,1-jk]carbazole-4,8,10(9H)-trione hydrochloride]
0.034	CN(C)CCn1c(=O)c2cccc3c4ccc5occc5c4n(c1=O)c23 [Example 17, 2-[2-(Dimethylamino)ethyl]-1H-furo[3,2-a]pyrimido[5,6,1-jk]carbazole-1,3(2H)-dione hydrochloride]
0.076	CN(C)CCn1c(=O)c2cccc3c4ccc5ccccc5c4n(c1=O)c23 [Example 18, 2-[2-(Dimethylamino)ethyl]-1H-benzo[a]pyrimido[5,6,1-jk]carbazole-1,3(2H)-dione hydrochloride]
0.081	COc1cccc2c1ccc1c2c2cccc3c(=O)n(CCN(C)C)c(=O)n1c32 [Example 23, 5-[2-(Dimethylamino)ethyl]-10-methoxy-4H-benzo[c]pyrimido[5,6,1-jk]carbazole-4,6(5H)-dione hydrochloride]
0.028	CN(C)CCn1c(=O)c2cccc3c4c5c(ccc4n(c1=O)c23)C(=O)OCC5 [Example 25, 1,2-Dihydro-9-[2-(dimethylamino)ethyl]-4H,8H-pyrano[3,4-c]pyrimido[5,6,1-jk]carbazole-4,8,10(9H)-trione hydrochloride]
0.07	CN(C)CCn1c(=O)c2cc(Cl)cc3c4c5ccccc5ccc4n(c1=O)c23 [Example 28, 2-Chloro-5-[2-(dimethylamino)ethyl]-4H-benzo[c]pyrimido [5,6,1-jk]carbazole-4,6(5H)-dione hydrochloride]
0.071	CN(C)CCn1c(=O)c2cccc3c4c5c(=O)[nH]ccc5ccc4n(c1=O)c23 [Example 29, 9-[2-(Dimethylamino)ethyl]-8H-pyrido[4,3-c]pyrimido[5,6,1-jk]carbazole-1,8,10(2H,9H)-trione hydrochloride]
0.032	CN(C)CCn1c(=O)c2cccc3c4c5ccccc5ncc4n(c1=O)c23 [Example 30, 5-[2-(Dimethylamino)ethyl]-4H-quino[4',3'-4,5]pyrrolo [3,2,1-ij]quinazoline-4,6(5H)-dione dihydrochloride]
0.11	CN(C)CCn1c(=O)c2cc(N)cc3c2n(c1=O)-c1cc2ccccc2cc1O3 [Example 31, 5-Amino-2-[2-(dimethylamino)ethyl]-1H-benzo[b]pyrimido [5,6,1-kl]phenoxazine-1,3(2H)-dione dihydrochloride]
0.014	CN(C)CCn1c(=O)c2cccc3c4c5cccnc5ccc4n(c1=O)c23 [Example 36, 9-[2-(Dimethylamino)ethyl]-8H-pyrido[2,3-c]pyrimido[5,6,1-jk]carbazole-8,10(9H)-dione dihydrochloride]
0.0077	CN(C)CCn1c(=O)c2cccc3c4c5c(ccc4n(c1=O)c23)C(=O)NCC5 [Example 39, 1,2-Dihydro-9-[2-(dimethylamino)ethyl]-8H-pyrido[3,4-c]pyrimido[5,6,1-jk]carbazole-4,8,10(3H,9H)-trione hydrochloride]
